Data published in ChEMBL document CHEMBL2429810, “Heteroannelated and 7-deoxygenated goniofufurone mimics with antitumour activity: design, synthesis and preliminary SAR studies” (Bioorg Med Chem Lett, 2013).

What was measured:
MRC5 = assay: Antiproliferative activity against human MRC5 cells after 72 hrs by MTT assay; format: cell-based; conditions: MRC5, 72 h
HL-60 = assay: Antiproliferative activity against human HL60 cells after 72 hrs by MTT assay; format: functional, cell-based; conditions: HL-60, 72 h
HeLa = assay: Antiproliferative activity against human HeLa cells after 72 hrs by MTT assay; format: functional, cell-based
Raji [1] = assay: Ratio of doxorubicin IC50 to compound IC50 for human Raji cells; format: functional
Jurkat = assay: Antiproliferative activity against human Jurkat cells after 72 hrs by MTT assay; format: functional, cell-based
Raji [2] = assay: Antiproliferative activity against human Raji cells after 72 hrs by MTT assay; format: functional, cell-based
K562 = assay: Antiproliferative activity against human K562 cells after 72 hrs by MTT assay; format: functional, cell-based; conditions: K562, 72 h

Row | Compound | IC50 (HL-60) | IC50 (HeLa) | IC50 (Jurkat) | IC50 (Raji [2]) | IC50 (K562) | IC50 (MRC5) | Ratio IC50 (Raji [1])
1 | O=C1C[C@H]2O[C@H](Cc3ccccc3)[C@H](O)[C@H]2O1 | – | – | – | – | – | > 100 µM | –
2 | O=C1C[C@H]2O[C@H]([C@H](O)c3ccccc3)[C@H](O)[C@H]2O1 | > 100 µM | – | – | – | – | > 100 µM | –
3 | O=C1C[C@@H]2O[C@@H](Cc3ccccc3)[C@@H](O)[C@@H]2O1 | 0.17 µM | 1.21 µM | 0.12 µM | 0.03 µM | 0.02 µM | > 100 µM | 100
4 | Cc1ccccc1[C@H](c1ccccc1)[C@H]1O[C@@H]2CC(=O)O[C@@H]2[C@H]1O | 11.7 µM | 11.4 µM | 21.4 µM | 5.67 µM | 1.56 µM | > 100 µM | –
5 | O=C1C[C@@H]2O[C@H]3[C@H](c4ccccc4)c4ccccc4CO[C@H]3[C@@H]2O1 | 11.7 µM | 6.56 µM | 18.4 µM | 15.9 µM | 1.21 µM | > 100 µM | –

Now from value to molecule, other results behind:

Row | IC50 (HL-60) | IC50 (HeLa) | IC50 (Jurkat) | IC50 (Raji [2]) | IC50 (K562) | Compound | IC50 (MRC5) | Ratio IC50 (Raji [1])
6 | 0.56 µM | 4.32 µM | 1.01 µM | 9.48 µM | 0.14 µM | O=C1C[C@H]2O[C@H](Cc3ccccc3)[C@H](OCc3ccccc3)[C@H]2O1 | > 100 µM | –
7 | 0.78 µM | > 100 µM | 0.074 µM | 0.46 µM | 1.43 µM | O=C1C[C@H]2O[C@@H]3[C@@H](c4ccccc4)c4ccccc4CO[C@@H]3[C@H]2O1 | > 100 µM | –
